The source made the active and inactive calls. The calls are words filed in the database; no cut-off is given here.
Experiments:
PANC-1 [1] = assay: Induction of ROS production in human PANC-1 cells at 20 uM incubated for 3 hrs under 415 nm light irradiation by DCFH-DA staining based fluorescence microscopic analysis; type: functional, cell-based
MCF7 [2] = assay: Induction of ROS production in human MCF7 cells at 20 uM incubated for 3 hrs under 415 nm light irradiation by DCFH-DA staining based fluorescence microscopic analysis; type: functional, cell-based
[3] = Dark toxicity against human PANC-1 cells assessed as reduction in cell viability after 3 hrs by MTT assay; type: cell-based
PANC-1 [4] = assay: Phototoxicity against human PANC-1 cells assessed as reduction in cell viability after 3 hrs followed by compound washout and 415 nm light irradiation measured after overnight incubation by MTT assay; type: functional
[5] = Dark toxicity against human MCF7 cells assessed as reduction in cell viability after 3 hrs by MTT assay; type: cell-based
MCF7 [6] = assay: Phototoxicity against human MCF7 cells assessed as reduction in cell viability after 3 hrs followed by compound washout and 415 nm light irradiation measured after overnight incubation by MTT assay; type: functional
[7] = Dark toxicity against human A549 cells assessed as reduction in cell viability after 3 hrs by MTT assay; type: cell-based
[8] = Dark toxicity against human HepG2 cells assessed as reduction in cell viability after 3 hrs by MTT assay; type: cell-based
A549 = assay: Phototoxicity against human A549 cells assessed as reduction in cell viability after 3 hrs followed by compound washout and 415 nm light irradiation measured after overnight incubation by MTT assay; type: functional
HepG2 = assay: Phototoxicity against human HepG2 cells assessed as reduction in cell viability after 3 hrs followed by compound washout and 415 nm light irradiation measured after overnight incubation by MTT assay; type: functional; details: HepG2, light or radiation study
PANC-1 [9] = assay: Induction of apoptosis in human PANC-1 cells at 20 uM preincubated for 3 hrs followed by compound washout and 415 nm light irradiation for 10 mins and measured after 20 mins post irradiation by Annexin V-FITC staining based assay; type: functional, cell-based
PANC-1 [10] = assay: Induction of apoptosis in human PANC-1 cells at 20 uM preincubated for 3 hrs followed by compound washout and 415 nm light irradiation for 10 mins and measured after 1 hr post irradiation by Annexin V-FITC staining based assay; type: functional, cell-based
PANC-1 [11] = assay: Induction of apoptosis in human PANC-1 cells at 20 uM preincubated for 3 hrs followed by compound washout and 415 nm light irradiation for 10 mins and measured after 4 to 24 hrs post irradiation by Annexin V-FITC staining based assay; type: functional, cell-based
PANC-1 [12] = assay: Induction of apoptosis in human PANC-1 cells assessed as caspase 3 cleavage at 20 uM preincubated for 3 hrs followed by compound washout and 415 nm light irradiation for 10 mins and measured after 20 to 1440 mins post irradiation by Western blot analysis; type: functional, cell-based
PANC-1 [13] = assay: Induction of apoptosis in human PANC-1 cells assessed as necrosis at 20 uM preincubated for 3 hrs followed by compound washout and 415 nm light irradiation for 10 mins and measured after 24 hrs post irradiation by Hoeschst-33342/PI staining based assay; type: functional, cell-based
PANC-1 [14] = assay: Induction of apoptosis in human PANC-1 cells assessed as shrinkage of cells at 20 uM preincubated for 3 hrs followed by compound washout and 415 nm light irradiation for 10 mins and measured after 24 hrs post irradiation by Hoeschst-33342/PI staining based assay; type: functional, cell-based
PANC-1 [15] = assay: Induction of apoptosis in human PANC-1 cells assessed as membrane decomposition at 20 uM preincubated for 3 hrs followed by compound washout and 415 nm light irradiation for 10 mins and measured after 24 hrs post irradiation by Hoeschst-33342/PI staining based assay; type: functional, cell-based
PANC-1 [16] = assay: Induction of ROS production in human PANC-1 cells at 20 uM preincubated for 3 hrs followed by compound washout and 900 nm light irradiation by DCFH-DA staining based two-photon fluorescence microscopy analysis; type: functional, cell-based
PANC-1 [17] = assay: Induction of cell morphological changes in human PANC-1 cells at 20 uM preincubated for 2 hrs followed by compound washout and 900 nm light irradiation measured after 1 hr post irradiation by two-photon based bright field imaging analysis; type: functional
PANC-1 [18] = assay: Induction of cell death in human PANC-1 cells assessed as reduction in cell viability preincubated for 2 hrs followed by compound washout and immediate 900 nm light irradiation and measured 1 hr post light irradiation by two-photon based ReadyProbes blue/green imaging analysis; type: functional
PANC-1 [19] = assay: Induction of cell death in human PANC-1 cells assessed as reduction in cell viability preincubated for 3 hrs followed by compound washout and immediate 900 nm light irradiation and measured 1 hr post light irradiation by two-photon based MTT assay; type: functional
PANC-1 [20] = assay: Antitumor activity against human PANC-1 tumor spheroids at 20 uM preincubated for 3 hrs followed by compound washout and 900 nm light irradiation by two-photon baseReadyProbes blue/green imaging analysis; type: functional, cell-based
PANC-1 [21] = assay: Induction of cell death in human PANC-1 cells assessed as […] cleavage at 20 uM after 6 hrs under 900 nm light irradiation by two-photon based Western blotting analysis; type: functional
[22] = Induction of ROS production in DBPS at pH 7.4 assessed as DCF production at 20 uM upon 415 nm light irradiation by fluorescence spectra analysis; type: functional
[23] = Induction of singlet oxygen production assessed as singlet oxygen quantum yield at 20 uM upon 415 nm light irradiation by ABDA assay; type: functional
[24] = Drug uptake in human PANC-1 cells at 0.5 to 20 uM after 3 hrs under 900 nm light irradiation by two-photon based fluorescence imaging assay; type: ADME, cell-based; details: panc-1, 3 h, dose 0.5-20 µM
[25] = PANC-1, light or radiation study

O=C(Nc1ccc2c3c(cccc13)C(=O)C=C2)c1ccccc1
Activity (PANC-1 [1]): Active
Activity (MCF7 [2]): Active
CC50 at 3 h [3]: > 32000 nM
Activity (PANC-1 [4]; DDE = dose-dependent effect): Dde
CC50 (PANC-1 [4]; [25]): 1400 nM
CC50 at 3 h [5]: > 32000 nM
Activity (MCF7 [6]; DDE = dose-dependent effect): Dde
CC50 (MCF7 [6]; MCF7, light or radiation study): 1600 nM
CC50 at 3 h [7]: > 32000 nM
CC50 at 3 h [8]: > 32000 nM
CC50 (A549; A549, light or radiation study): 4400 nM
Activity (A549; DDE = dose-dependent effect): Dde
CC50 (HepG2): > 32000 nM
Activity (PANC-1 [9]): Active
Activity (PANC-1 [10]): Active
Activity (PANC-1 [11]): Active
Activity (PANC-1 [12]): Active
Activity (PANC-1 [13]): Active
Activity (PANC-1 [14]): Active
Activity (PANC-1 [15]): Active
Activity (PANC-1 [16]): Active
Activity (PANC-1 [17]): Active
Activity (PANC-1 [18]; DDE = dose-dependent effect): Dde
CC50 (PANC-1 [18]; [25]): 647 nM
Activity (PANC-1 [19]; DDE = dose-dependent effect): Dde
CC50 (PANC-1 [19]; [25]): 647 nM
Activity (PANC-1 [20]): Active
Activity (PANC-1 [21]): Active
Activity [22]: Active
Activity [23]: 0.18
Drug uptake [24]: Active

Reference: ChEMBL document CHEMBL5131544, “Two-Photon Photodynamic Therapy Targeting Cancers with Low Carboxylesterase 2 Activity Guided by Ratiometric Fluorescence” (J Med Chem, 2022)
